In ChEMBL document CHEMBL1201862, “PubChem BioAssay data set” (2004):
The source made the active and inactive calls.

Columns and labels:
[1] = molecular target: T1, Cytochrome P450 1A2 (Homo sapiens, UniProt P05177);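 further: PubChem cytochrome P450 panel assay, CYP1A2 panel member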
T1 sequence (P05177 whole entry): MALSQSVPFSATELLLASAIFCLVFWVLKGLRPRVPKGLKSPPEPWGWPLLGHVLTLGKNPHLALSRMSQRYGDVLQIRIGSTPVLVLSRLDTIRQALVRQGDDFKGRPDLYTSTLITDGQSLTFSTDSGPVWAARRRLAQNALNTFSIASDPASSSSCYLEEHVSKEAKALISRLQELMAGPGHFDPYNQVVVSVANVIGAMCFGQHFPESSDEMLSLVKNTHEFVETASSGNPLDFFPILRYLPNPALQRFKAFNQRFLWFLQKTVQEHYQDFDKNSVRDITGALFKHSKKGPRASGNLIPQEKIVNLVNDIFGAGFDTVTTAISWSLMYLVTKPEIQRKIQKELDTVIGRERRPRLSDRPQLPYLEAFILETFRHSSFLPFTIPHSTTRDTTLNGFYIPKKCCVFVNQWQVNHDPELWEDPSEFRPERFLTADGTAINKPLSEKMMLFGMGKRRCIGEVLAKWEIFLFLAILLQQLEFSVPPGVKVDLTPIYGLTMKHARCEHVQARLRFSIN

[2] = molecular target: Cytochrome P450 2D6 (Homo sapiens, UniProt P10635);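 further: CYP2D6 member of a cytochrome P450 panel assay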
[3] = NIH-3T3 fibroblast cytotoxicity, dose response, cytotoxicity control, cell-based, fluorescence, Alamar Blue, secondary assay (AID 2327); assay type: functional;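 further: NIH-3T3 mouse fibroblasts cultured with fluconazole at 8 µg/mL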
[4] = fluconazole-exposed Candida albicans growth modulators – fluorescence, retest, confirmation (AID 2467); assay type: functional, cell-based
[5] = system: Jurkat; assay: blockers of NF-kB activation in T cells – Jurkat, luciferase reporter, luminescence, B- and T-cell, dose response (AID 489004); assay type: functional, cell-based; conditions: Homo sapiens;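 further: NF-kB luciferase reporter Jurkat cells stimulated with PMA plus ionomycin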
[6] = HEK-293T viability loss, compound-treated – cell-based, uHTS hits, cytotoxicity control for B/T-cell NF-kB inhibitor project, dose response (AID 489019); assay type: functional;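 further: IC50 reflects cytotoxicity as loss of cell viability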
[7] = molecular target: T2, Microphthalmia-associated transcription factor (Homo sapiens, UniProt O75030); assay: reducers of TRPM1 reporter luminescence, concentration series – cell-based, SK-MEL-5, cherry-picked, set 3, MITF inhibitor project, dose response (AID 493073); assay type: functional;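 further: SK-MEL-5 melanoma cells with luciferase driven by the MITF target TRPM1 promoter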
T2 sequence (O75030 whole entry): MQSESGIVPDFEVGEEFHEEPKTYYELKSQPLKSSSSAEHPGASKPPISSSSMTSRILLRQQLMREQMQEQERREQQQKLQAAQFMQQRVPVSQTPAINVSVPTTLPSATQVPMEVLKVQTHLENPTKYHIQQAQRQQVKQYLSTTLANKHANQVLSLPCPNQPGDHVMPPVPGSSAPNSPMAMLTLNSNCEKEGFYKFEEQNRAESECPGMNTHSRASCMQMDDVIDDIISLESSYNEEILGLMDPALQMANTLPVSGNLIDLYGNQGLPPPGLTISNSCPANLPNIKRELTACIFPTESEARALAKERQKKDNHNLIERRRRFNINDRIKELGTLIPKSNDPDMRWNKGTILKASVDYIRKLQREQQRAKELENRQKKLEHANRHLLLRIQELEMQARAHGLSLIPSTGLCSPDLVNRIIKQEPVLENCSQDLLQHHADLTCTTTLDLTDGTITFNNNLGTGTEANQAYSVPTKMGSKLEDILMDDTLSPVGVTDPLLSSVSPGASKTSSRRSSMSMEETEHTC

[8] = system: A-375; assay: MITF: Counter assay: A375 proliferation Measured in Cell-Based System Using Plate Reader - 2084-03_Inhibitor_Dose_DryPowder_Activity. [Related pubchem assays (depositor defined):AID488944]; assay type: functional; conditions: Homo sapiens
[9] = system: INS1; assay: INS-1E survival protection against cytokine death – cell-based, luminescence, retest, dose response (AID 449756); assay type: functional; conditions: Rattus norvegicus;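 further: cell death triggered by IL-1 beta plus TNF-alpha plus IFN-gamma mixture; protective hits raise ATP signal compared with cytokine alone wells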
[10] = molecular target: T3, RNA-binding protein pos-1 (Caenorhabditis elegans, UniProt G5EF15); assay: disruptors of C. elegans POS-1 RNA interaction – biochemical, fluorescence polarization, dose response (AID 1964);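 further: purified POS-1 fused to maltose binding protein made in E. coli; potency of compounds blocking POS-1 binding to fluorescent RNA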
T3 sequence (G5EF15 whole entry): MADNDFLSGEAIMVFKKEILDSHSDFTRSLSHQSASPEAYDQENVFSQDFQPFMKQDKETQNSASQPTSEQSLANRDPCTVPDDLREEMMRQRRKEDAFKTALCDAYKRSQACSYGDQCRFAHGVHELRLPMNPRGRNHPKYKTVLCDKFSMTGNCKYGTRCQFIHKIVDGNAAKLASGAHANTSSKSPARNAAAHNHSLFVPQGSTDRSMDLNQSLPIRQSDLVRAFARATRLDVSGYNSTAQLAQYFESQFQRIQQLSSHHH

[11] = Luminescence Cell-Based Dose Confirmation HTS to Identify Activators of 5'UTR Stem-Loop Driven Alpha-Synuclein mRNA Translation in H4 Neuroglioblastoma Cells. [Related pubchem assays: 1829 (Project Summary), 1814 (Primary HTS)]; assay type: functional
[12] = Luminescence Cell-Based Dose Response HTS to Identify Activators of Luciferase Translation or Activity in H4 […] Cells. [Related pubchem assays: 1829 (Project Summary), 1814 (Primary HTS)]; assay type: functional
[13] = system: H4; assay: Luminescence Cell-Based Dose Response HTS to Identify Activators of 5'UTR Stem-Loop Driven Prion Protein mRNA Translation in H4 Neuroglioblastoma Cells. [Related pubchem assays: 1829 (Project Summary), 1814 (Primary HTS)]; assay type: functional; conditions: Homo sapiens
[14] = molecular target: T4, Zinc finger protein mex-5 (Caenorhabditis elegans, UniProt Q9XUB2); assay: potency of MEX-5 RNA-binding blockers – biochemical, C. elegans, fluorescence polarization, dose response (AID 1960)
T4 sequence (Q9XUB2 whole entry): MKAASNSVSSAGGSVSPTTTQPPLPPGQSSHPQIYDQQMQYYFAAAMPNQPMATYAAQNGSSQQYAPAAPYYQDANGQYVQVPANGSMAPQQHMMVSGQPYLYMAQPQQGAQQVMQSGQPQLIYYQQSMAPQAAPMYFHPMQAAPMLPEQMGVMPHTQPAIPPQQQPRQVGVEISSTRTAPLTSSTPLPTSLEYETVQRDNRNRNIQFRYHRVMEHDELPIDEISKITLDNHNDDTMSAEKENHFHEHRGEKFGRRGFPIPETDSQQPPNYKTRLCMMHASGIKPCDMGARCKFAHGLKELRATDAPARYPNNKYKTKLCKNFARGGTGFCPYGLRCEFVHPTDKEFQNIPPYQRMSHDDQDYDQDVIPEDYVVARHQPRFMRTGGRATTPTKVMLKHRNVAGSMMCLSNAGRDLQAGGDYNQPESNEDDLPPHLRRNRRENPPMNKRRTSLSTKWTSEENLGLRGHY

[15] = molecular target: Oxytocin receptor (Homo sapiens, UniProt P30559); assay: Counterscreen for vasopressin 1 receptor (V1R) agonists: Fluorescence-based cell-based high throughput dose response assay for agonists of the Oxytocin Receptor (OXTR). [Related pubchem assays: 2435 (Primary screen (OXTR agonists in singlicate)), 434964 (Confirmation screen (V1R agonists in triplicate)), 434969 (Counterscreen (OXTR agonists in …; assay type: functional
[16] = viability of PTEN-deleted HCT116 cells – cell-based, HCT116 PTEN knockout, dose response (AID 1047); assay type: functional;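 further: HCT116 colon tumor cells with PTEN knocked out; cells exposed to compound for 60 hours before readout; potency for loss of cell viability measured by luminescence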
[17] = molecular target: Vasopressin V1a receptor (Homo sapiens, UniProt P37288); assay: Fluorescence-based cell-based high throughput dose response screening assay for agonists of the vasopressin 1 receptor (V1R).; assay type: functional
[18] = viability of HCT116 lacking mutant beta-catenin – cell-based, human colon tumor, dose response (AID 1045); assay type: functional;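 further: HCT116 colon tumor cells with beta catenin knocked out; cells exposed to compound for 60 hours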
[19] = molecular target: UDP-galactopyranose mutase (Mycobacterium tuberculosis, UniProt P9WIQ1); assay: Inhibitors of Mycobacterium tuberculosis UDP-galactopyranose mutase (UGM) enzyme Measured in Biochemical System Using Plate Reader - 2105-02_Inhibitor_Dose_CherryPick_Activity. [Related pubchem assays (depositor defined):AID504439]
[20] = molecular target: DNA dC->dU-editing enzyme APOBEC-3A (Homo sapiens, UniProt P31941); assay: Dose Response confirmation of small molecule APOBEC3A DNA Deaminase Inhibitors via a fluorescence-based single-stranded DNA deaminase assay. [Related pubchem assays (depositor defined):AID493011, AID493024]; assay type: functional
[21] = molecular target: T5, ORF 73 (Human herpesvirus 8, UniProt O40947); assay: KSHV LANA DNA-binding disruption – biochemical, fluorescence polarization, cherry-picked samples, dose response (AID 504725); parameters: species or system Human gammaherpesvirus 8;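 further: fluorescence polarization of a labeled DNA duplex reporting LANA DNA binding; potency is for inhibitors that block LANA binding to the DNA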
T5 sequence (O40947 whole entry): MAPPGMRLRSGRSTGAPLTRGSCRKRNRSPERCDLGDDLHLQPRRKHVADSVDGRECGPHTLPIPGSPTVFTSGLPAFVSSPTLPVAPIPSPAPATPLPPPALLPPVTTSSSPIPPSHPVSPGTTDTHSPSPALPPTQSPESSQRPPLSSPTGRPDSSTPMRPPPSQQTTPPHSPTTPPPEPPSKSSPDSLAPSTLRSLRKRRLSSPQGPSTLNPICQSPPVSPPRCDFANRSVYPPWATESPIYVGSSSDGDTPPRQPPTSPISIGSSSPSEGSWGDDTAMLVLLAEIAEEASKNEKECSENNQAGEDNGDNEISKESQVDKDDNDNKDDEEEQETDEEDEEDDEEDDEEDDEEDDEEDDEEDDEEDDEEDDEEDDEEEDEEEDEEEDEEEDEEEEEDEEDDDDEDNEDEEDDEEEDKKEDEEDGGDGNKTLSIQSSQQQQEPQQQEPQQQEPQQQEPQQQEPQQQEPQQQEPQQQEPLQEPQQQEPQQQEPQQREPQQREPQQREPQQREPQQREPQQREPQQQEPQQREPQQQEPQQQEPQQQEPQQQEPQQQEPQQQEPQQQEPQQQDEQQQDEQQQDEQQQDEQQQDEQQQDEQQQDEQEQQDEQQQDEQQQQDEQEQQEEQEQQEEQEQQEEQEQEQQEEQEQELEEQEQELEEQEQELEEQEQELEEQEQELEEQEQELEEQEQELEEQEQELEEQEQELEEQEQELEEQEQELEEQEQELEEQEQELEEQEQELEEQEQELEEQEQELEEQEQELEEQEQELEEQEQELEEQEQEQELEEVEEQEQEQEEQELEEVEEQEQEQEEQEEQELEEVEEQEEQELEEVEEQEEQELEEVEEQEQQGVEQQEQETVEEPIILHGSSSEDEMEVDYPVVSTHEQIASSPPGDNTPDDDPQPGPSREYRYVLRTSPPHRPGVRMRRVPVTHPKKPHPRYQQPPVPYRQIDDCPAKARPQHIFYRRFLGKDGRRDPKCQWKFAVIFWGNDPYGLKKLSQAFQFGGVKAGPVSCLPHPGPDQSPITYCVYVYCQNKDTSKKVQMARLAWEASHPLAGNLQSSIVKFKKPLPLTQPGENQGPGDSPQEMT

[22] = molecular target: DNA dC->dU-editing enzyme APOBEC-3G (Homo sapiens, UniProt Q9HC16); assay type: functional;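 further: Dose-response counterscreen measuring inhibition of APOBEC3G DNA deaminase activity, run while confirming APOBEC3A inhibitors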
[23] = molecular target: Keap1/Nrf2 (Homo sapiens, UniProt Q14145); assay: disruptors of Keap1 binding to Nrf2 peptide – biochemical, fluorescence polarization, cherry-picked samples, dose response (AID 588683)
[24] = molecular target: Cytochrome P450 3A4 (Homo sapiens, UniProt P08684);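 further: CYP3A4 tested as one member of a cytochrome P450 panel screen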
[25] = molecular target: T6, Mannose-6-phosphate isomerase (Homo sapiens, UniProt P34949); assay: phosphomannose isomerase inhibition – biochemical, fluorescence intensity, confirmation (AID 1535)
T6 sequence (P34949 whole entry): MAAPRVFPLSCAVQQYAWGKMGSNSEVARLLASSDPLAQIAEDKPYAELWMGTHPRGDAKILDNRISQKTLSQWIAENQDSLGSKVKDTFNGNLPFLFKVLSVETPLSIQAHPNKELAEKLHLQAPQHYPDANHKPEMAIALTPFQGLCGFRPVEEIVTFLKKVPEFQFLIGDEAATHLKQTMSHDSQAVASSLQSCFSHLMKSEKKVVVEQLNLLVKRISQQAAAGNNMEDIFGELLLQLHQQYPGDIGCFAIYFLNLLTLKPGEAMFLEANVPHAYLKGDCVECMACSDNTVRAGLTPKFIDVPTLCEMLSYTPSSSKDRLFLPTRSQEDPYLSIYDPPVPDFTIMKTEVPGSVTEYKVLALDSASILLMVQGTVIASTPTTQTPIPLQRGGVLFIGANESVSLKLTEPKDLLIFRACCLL

[26] = molecular target: T7, Phosphomannomutase 2 (Homo sapiens, UniProt O15305); assay: Counter screen SAR assay for PMM2 inhibitors via a fluorescence intensity assay. [Related pubchem assays (depositor defined):AID1545, AID1574]
T7 sequence (O15305 whole entry): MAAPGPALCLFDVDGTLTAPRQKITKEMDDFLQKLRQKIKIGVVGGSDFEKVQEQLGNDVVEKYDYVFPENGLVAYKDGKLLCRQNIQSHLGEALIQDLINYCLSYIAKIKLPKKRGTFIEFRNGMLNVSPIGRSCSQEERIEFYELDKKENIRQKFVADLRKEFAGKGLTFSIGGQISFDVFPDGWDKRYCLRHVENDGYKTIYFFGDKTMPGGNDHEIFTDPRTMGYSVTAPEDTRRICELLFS

[27] = molecular target: Phosphoethanolamine/phosphocholine phosphatase (Homo sapiens, UniProt Q8TCT1); assay: SAR assay for compounds that inhibit PHOSPHO1. [Related pubchem assays (depositor defined):AID1545, AID1565, AID1574]
[28] = molecular target: Kappa-type opioid receptor (Homo sapiens, UniProt P41145); assay: SAR analysis of small molecule agonists of the kappa opioid receptor via a luminescent beta-arrestin assay - Set 3. [Related pubchem assays (depositor defined):AID1777, AID1785, AID1786, AID1966, AID2133, AID2136, AID2284, AID2500]; assay type: functional
Sequence of Kappa-type opioid receptor (P41145 whole entry): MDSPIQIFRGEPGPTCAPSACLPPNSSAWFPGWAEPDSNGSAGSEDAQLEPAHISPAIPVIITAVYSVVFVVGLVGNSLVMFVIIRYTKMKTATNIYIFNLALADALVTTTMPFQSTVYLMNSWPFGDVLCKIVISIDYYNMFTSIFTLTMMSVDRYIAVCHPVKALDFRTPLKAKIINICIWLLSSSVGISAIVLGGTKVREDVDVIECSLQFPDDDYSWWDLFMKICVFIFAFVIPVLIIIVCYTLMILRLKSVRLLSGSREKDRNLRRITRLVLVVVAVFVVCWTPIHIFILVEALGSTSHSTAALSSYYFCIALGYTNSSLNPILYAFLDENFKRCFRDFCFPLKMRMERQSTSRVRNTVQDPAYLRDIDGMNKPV

Sequence of Cytochrome P450 2D6 (P10635 whole entry): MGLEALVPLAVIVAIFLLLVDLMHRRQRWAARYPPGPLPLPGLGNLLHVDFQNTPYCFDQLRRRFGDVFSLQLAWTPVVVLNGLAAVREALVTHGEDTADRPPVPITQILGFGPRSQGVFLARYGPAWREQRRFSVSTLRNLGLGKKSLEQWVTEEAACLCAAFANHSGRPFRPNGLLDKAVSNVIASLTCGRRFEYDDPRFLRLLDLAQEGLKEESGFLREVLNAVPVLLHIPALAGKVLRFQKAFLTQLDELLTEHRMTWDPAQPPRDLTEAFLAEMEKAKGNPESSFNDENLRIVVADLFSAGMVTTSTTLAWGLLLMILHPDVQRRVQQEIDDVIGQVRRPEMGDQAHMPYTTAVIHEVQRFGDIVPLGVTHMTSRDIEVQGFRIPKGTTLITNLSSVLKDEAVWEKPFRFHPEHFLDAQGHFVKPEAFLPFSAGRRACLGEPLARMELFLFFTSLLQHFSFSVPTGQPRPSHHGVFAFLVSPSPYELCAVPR
Sequence of UDP-galactopyranose mutase (P9WIQ1 whole entry): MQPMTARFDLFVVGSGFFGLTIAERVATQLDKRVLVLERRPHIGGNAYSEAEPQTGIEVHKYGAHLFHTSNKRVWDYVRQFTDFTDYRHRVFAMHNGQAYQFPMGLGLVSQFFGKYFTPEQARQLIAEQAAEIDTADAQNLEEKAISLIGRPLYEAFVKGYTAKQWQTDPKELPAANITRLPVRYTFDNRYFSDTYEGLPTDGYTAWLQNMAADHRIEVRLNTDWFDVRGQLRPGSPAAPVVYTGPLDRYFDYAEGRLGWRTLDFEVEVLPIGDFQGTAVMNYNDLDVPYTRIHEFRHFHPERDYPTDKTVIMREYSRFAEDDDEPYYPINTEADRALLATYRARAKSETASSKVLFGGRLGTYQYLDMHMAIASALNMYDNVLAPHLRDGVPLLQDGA
Sequence of Phosphoethanolamine/phosphocholine phosphatase (Q8TCT1 whole entry): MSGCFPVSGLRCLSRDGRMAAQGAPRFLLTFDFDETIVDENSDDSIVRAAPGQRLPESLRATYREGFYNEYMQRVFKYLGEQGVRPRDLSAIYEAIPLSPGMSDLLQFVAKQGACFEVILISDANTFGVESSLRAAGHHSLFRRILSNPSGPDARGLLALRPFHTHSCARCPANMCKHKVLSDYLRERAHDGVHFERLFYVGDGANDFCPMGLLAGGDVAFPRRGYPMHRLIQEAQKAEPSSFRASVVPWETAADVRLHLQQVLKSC
Sequence of Vasopressin V1a receptor (P37288 whole entry): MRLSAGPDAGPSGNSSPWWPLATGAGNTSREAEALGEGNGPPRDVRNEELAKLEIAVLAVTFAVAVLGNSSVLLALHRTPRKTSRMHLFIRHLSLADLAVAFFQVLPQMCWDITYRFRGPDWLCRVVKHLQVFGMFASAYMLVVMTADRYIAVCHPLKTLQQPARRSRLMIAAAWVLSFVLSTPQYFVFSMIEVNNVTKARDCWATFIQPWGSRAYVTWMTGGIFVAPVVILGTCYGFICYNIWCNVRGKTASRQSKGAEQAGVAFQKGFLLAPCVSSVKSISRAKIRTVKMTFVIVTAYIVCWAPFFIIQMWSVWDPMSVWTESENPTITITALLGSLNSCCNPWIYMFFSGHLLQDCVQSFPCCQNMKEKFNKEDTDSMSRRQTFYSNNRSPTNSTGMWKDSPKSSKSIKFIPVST
Sequence of Keap1/Nrf2 (Q16236 whole entry): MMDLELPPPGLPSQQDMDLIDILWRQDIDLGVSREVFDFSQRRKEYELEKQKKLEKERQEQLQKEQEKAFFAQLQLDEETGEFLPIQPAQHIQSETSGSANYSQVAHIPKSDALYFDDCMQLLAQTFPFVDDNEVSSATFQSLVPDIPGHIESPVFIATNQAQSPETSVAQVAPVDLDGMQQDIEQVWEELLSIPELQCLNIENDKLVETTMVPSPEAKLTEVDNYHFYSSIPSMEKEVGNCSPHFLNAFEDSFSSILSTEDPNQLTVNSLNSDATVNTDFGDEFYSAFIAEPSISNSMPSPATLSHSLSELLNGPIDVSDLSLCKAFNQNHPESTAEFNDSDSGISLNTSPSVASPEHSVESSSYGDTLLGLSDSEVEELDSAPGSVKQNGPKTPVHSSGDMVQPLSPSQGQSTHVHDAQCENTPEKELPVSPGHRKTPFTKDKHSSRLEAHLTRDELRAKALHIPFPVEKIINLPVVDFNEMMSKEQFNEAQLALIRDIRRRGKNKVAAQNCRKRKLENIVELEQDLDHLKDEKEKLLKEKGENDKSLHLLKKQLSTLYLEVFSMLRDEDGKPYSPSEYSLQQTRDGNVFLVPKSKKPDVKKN
Sequence of Keap1/Nrf2 (Q14145 whole entry): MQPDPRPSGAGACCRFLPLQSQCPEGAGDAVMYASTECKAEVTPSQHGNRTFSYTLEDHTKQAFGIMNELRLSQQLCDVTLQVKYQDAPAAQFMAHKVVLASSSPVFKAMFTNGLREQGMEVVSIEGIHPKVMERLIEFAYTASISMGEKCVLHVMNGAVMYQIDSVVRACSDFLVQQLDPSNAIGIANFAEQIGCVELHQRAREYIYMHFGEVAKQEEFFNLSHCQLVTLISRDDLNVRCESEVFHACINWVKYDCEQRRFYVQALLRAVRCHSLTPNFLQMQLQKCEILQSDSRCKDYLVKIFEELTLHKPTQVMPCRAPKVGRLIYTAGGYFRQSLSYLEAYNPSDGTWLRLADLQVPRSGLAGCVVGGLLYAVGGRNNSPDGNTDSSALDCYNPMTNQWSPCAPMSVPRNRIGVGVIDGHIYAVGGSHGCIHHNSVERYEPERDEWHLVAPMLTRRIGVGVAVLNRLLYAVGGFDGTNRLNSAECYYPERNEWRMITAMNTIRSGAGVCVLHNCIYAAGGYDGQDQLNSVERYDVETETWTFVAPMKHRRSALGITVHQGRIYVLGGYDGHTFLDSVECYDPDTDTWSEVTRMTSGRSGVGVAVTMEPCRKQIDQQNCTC
Sequence of DNA dC->dU-editing enzyme APOBEC-3A (P31941 whole entry): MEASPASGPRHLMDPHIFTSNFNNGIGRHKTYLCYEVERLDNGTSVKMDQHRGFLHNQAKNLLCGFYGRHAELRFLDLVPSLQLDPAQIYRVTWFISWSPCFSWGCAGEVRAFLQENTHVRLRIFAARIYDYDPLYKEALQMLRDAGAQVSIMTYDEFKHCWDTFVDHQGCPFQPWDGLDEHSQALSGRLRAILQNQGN
Sequence of Cytochrome P450 3A4 (P08684 whole entry): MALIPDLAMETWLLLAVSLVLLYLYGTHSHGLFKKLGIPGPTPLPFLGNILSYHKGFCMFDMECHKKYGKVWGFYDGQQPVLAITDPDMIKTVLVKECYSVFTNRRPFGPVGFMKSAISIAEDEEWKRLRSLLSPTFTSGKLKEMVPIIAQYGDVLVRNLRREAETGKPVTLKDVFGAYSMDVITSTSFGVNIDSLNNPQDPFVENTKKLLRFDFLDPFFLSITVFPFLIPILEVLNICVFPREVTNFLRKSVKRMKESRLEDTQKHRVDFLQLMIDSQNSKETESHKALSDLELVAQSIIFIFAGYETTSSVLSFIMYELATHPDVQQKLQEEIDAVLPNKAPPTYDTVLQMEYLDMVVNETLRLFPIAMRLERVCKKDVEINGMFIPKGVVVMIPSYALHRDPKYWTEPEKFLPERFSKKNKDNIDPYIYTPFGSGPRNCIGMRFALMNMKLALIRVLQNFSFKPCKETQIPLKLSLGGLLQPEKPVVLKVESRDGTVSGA
Sequence of DNA dC->dU-editing enzyme APOBEC-3G (Q9HC16 whole entry): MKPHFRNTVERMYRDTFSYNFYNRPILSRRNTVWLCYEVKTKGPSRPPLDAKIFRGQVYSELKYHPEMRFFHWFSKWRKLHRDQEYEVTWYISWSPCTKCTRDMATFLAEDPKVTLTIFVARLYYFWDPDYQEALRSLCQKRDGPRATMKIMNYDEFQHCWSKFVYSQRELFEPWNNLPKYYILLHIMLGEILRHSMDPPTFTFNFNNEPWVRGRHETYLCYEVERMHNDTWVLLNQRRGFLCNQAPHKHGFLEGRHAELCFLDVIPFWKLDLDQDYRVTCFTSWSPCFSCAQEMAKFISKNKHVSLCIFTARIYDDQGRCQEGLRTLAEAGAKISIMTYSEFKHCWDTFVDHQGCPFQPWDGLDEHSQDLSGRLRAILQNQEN
Sequence of Oxytocin receptor (P30559 whole entry): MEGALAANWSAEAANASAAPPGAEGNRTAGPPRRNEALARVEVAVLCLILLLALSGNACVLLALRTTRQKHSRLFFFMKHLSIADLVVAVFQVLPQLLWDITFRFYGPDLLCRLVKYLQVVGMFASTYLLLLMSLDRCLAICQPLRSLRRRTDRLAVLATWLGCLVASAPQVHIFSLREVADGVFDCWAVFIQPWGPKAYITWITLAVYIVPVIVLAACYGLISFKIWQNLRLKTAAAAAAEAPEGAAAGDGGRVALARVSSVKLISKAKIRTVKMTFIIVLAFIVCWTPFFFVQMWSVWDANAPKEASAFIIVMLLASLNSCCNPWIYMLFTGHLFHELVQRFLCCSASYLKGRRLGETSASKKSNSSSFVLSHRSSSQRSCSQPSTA

CCNC(=O)COC(=O)c1cc(O)nc2ccccc12
inconclusive: AC50 [1] 15.8 µM | AC50 [2]

CCOc1ccc(-[n+]2c(-c3ccc(OC)cc3)cn3c2CCCCC3)cc1
inactive: EC50 [3] > 150 µM | IC50 [5] > 80 µM | IC50 [6] > 80 µM
active: EC50 [4] 0.48 µM | AC50 [7] 2.13 µM | AC50 [8] 48 µM | AC50 [9] 0.312 µM

O=C1c2cccc3c(N4CCCCC4)ccc(c23)C(=O)N1CCO
> 120 µM (not active): EC50 [13]
active: EC50 [10] 65.2 µM | EC50 [11] 16.5 µM | EC50 [12] 94.8 µM | EC50 [14] 114 µM | EC50 [15] > 3.32 µM | EC50 [16] 67.5 µM | EC50 [17] 4.75 µM | EC50 [18] 164 µM | AC50 [19] 151 µM

COC(=O)C[n+]1cccc2ccccc21
active: IC50 [20] 2.81 µM | AC50 [21] 6.51 µM | IC50 [22] 4.46 µM | AC50 [19] 35.7 µM | AC50 [23] 20.8 µM

Cc1ccc(CC(=O)N2CC(C)OC(C)C2)cc1 (stereo not given)
inconclusive: AC50 [2] | AC50 [24]

CCN(CC)S(=O)(=O)c1ccc(-n2sc3ccccc3c2=O)cc1
inactive: IC50 [25] > 50 µM | IC50 [26] > 100 µM | IC50 [27] 6.21 µM

Brc1ccc(-c2nnc(SCc3ccccc3)n2Cc2ccco2)cc1
inactive: EC50 [28] > 20 µM
